Results on eight compounds are retold here after ChEMBL document CHEMBL3352747, “Novel heterocyclic scaffolds of GW4064 as farnesoid X receptor agonists” (Bioorg Med Chem Lett, 2015).

In general, pEC50 refers to the EC50 on a negative log10 scale, so that one unit is a factor of ten. The term Emax denotes the greatest response seen or fitted, relative to the assay's reference.

The target in test [1] is T1, Bile acid receptor (Homo sapiens, UniProt Q96RI1).
T1 sequence (Q96RI1 whole entry): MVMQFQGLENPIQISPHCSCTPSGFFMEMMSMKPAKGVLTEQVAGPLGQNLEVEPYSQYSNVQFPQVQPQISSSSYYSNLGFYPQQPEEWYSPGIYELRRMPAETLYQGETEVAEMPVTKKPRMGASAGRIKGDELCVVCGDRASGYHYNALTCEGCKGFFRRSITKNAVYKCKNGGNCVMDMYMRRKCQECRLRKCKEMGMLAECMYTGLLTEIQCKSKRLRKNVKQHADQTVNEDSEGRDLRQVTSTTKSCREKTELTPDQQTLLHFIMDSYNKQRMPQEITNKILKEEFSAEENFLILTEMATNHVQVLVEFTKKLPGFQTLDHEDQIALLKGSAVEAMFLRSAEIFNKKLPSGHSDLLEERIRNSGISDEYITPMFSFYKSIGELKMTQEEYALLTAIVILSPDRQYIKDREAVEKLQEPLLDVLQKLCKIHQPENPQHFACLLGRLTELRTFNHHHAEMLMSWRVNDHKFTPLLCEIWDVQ
Put plainly: Agonist activity at FXR (unknown origin) transfected into african green monkey CV1 cells assessed as ligand-mediated transcription by luciferase reporter/ transient transfection assay. The format is cell-based, CV-1.

In test [2] the target is T2, Bile acid receptor (Homo sapiens) (UniProt Q96RI1).
T2 sequence (whole entry): T1 sequence (Q96RI1 whole entry)
Nature of the test: Agonist activity at FXR (unknown origin) assessed as ligand-mediated interaction of the SRC1 peptide with protein LBD by FRET assay relative to GW4064.

Test [3] has as its target T1, Bile acid receptor. Put plainly: Agonist activity at FXR (unknown origin) assessed as ligand-mediated interaction of the SRC1 peptide with protein LBD by FRET assay.
Test [4] concerns the target T2, Bile acid receptor (Homo sapiens). Put plainly: Agonist activity at FXR (unknown origin) transfected into african green monkey CV1 cells assessed as ligand-mediated transcription by luciferase reporter/ transient transfection assay relative to GW4064. The format is cell-based. Conditions: CV-1. In general terms: A reporter such as luciferase makes a cellular process visible.

pEC50: −log10 of the molar value.

On to `CC(C)c1ncn(CCc2c(Cl)cccc2Cl)c1COc1ccc(/C=C/c2cccc(C(=O)O)c2)c(Cl)c1`, for which the pEC50 is 6.17 at Bile acid receptor [1] and 6.21 at Bile acid receptor [3]. In addition, the Emax turned out to be 49% in test [2] and 35% in test [4].

In the case of `CC(C)c1occ(COc2c(Cl)cccc2Cl)c1COc1ccc(/C=C/c2cccc(C(=O)O)c2)c(Cl)c1`, the pEC50 on Bile acid receptor [1] (cv-1) is greater than 5.00; at Bile acid receptor [3], 5.91. Also, in test [2], the Emax came to 51%.

Take `CC(C)c1oc(=O)n(Cc2c(Cl)cccc2Cl)c1COc1ccc(/C=C/c2cccc(C(=O)O)c2)c(Cl)c1`: the pEC50 is 7.27 at Bile acid receptor [1] and 6.96 at Bile acid receptor [3]. Moreover, the values for the Emax in test [2] and in test [4] were 90% and 104%, respectively.

With `CC(C)n1cnc(COc2c(Cl)cccc2Cl)c1COc1ccc(/C=C/c2cccc(C(=O)O)c2)c(Cl)c1`, the negative-log EC50 (pEC50) on Bile acid receptor [1] was 6.25; at Bile acid receptor [3] it was 6.51. For the same compound, the Emax in test [2] is 88%; in test [4], 62%.

As for `CC(C)c1oc(=O)n(CCc2c(Cl)cccc2Cl)c1COc1ccc(/C=C/c2cccc(C(=O)O)c2)c(Cl)c1`, the pEC50 on Bile acid receptor [1] was 7.46; at Bile acid receptor [3] it was 7.18. In addition, the figures for the Emax in test [2] and in test [4] were 99% and 82%, respectively.

For the compound `CC(C)c1nnn(-c2c(Cl)cccc2Cl)c1COc1ccc(/C=C/c2cccc(C(=O)O)c2)c(Cl)c1`, the pEC50 was 7.46 at Bile acid receptor [1] and 6.95 at Bile acid receptor [3]. Also, the Emax in test [2] was found to be 106%; in test [4], 125%.

With `CC(C)n1nnc(-c2c(Cl)cccc2Cl)c1COc1ccc(/C=C/c2cccc(C(=O)O)c2)c(Cl)c1`, the pEC50 on Bile acid receptor [1] is 6.84; at Bile acid receptor [3], 6.91. For the same compound, the Emax in test [2] was found to be 80%; in test [4], 47%.

As for `CC(C)c1cnn(-c2c(Cl)cccc2Cl)c1COc1ccc(/C=C/c2cccc(C(=O)O)c2)c(Cl)c1`, the pEC50 is 7.70 on Bile acid receptor [1] and 7.38 on Bile acid receptor [3]. Also, the Emax in test [2] stood at 105%; in test [4], 100%.
